Measurements reported in patent US9320760B2, “Compositions and methods of use of compounds to increase cancer patient survival time” (BioNumerik Pharmaceuticals, Inc., priority 2008, dated 2016).

Experiments:
[1] = target: T1, Thioredoxin Reductase + Thioredoxin (Bos taurus, UniProt O97680); assay: NADPH oxidation at 340 nm, coupled thioredoxin (TX)/thioredoxin reductase (TXR)/NADPH system; format: biochemical, bovine
T1 sequence (O97680 1-105): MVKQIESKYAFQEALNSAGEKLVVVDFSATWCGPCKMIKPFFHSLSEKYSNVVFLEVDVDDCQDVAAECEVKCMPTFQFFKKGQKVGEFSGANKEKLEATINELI
Procedure: Biochemistry 21:6628-6633 (1982).
Data was then collected and plotted in Microsoft Excel. Error calculations, and graphical representations were performed in Microsoft Excel and Kaleidograph (ver. 3.5). Nonlinear data was graphically rendered using Kaleidograph. ANOVA and other statistical analyses were performed using SAS (ver. 8.2). Unless otherwise noted, significance level was set at 0.05, and error bars represent actual experimental standard deviation.
It should be noted that for the purposes of FIG. 17 only, thioredoxin is labeled TXR and thioredoxin reductase is labeled TRR.
Table 4, below, illustrates that various Formula (I) compounds (i.e., disulfide-containing compounds) of the present invention can serve as alternate substrate inhibitors for the coupled thioredoxin (TX)/thioredoxin reductase (TXR)/NADPH system as measured by the oxidation of NADPH. In Table 4, the Formula (I) compounds were utilized at a concentration of 0.5 mM.

[2] = target: T2, glutathione reductase (GR) (Homo sapiens, UniProt P00390); assay: NADPH oxidation, glutathione reductase (GR) alone; format: biochemical
T2 sequence (P00390 44-522): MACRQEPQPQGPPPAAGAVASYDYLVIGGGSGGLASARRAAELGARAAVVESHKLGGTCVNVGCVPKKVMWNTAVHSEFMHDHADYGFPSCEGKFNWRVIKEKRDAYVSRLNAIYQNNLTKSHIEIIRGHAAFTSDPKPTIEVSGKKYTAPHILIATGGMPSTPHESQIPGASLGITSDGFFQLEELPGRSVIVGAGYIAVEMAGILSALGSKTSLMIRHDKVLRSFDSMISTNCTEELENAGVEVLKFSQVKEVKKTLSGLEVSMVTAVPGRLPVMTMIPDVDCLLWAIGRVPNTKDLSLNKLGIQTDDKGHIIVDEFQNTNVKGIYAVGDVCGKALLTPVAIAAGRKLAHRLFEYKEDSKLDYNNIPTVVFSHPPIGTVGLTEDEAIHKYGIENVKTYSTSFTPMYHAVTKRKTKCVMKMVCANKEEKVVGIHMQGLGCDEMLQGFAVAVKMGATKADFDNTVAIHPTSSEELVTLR
Procedure: (§1) The Formula (I) compound was utilized at a concentration of 0.5 mM.

[3] = target: T3, GR + GRX + GSH (coupled glutaredoxin/glutathione/glutathione reductase system) (Homo sapiens, UniProt P35754); assay: NADPH oxidation, coupled GRX/GSH/GR system; format: biochemical
T3 sequence (P35754 1-106): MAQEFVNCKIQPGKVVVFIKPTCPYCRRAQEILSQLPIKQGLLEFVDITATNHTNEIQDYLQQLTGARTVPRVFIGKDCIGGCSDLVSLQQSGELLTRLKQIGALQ
Procedure: as §1

whole cells = assay: whole cell mediated disulfide reduction (α-lipoic acid, hydroxyethyldisulfide); format: cell-based; details: treatments with paclitaxel, cisplatin and Tavocept
breast cancer cell lines = assay: cytotoxicity study in combination with cisplatin, breast cancer cell lines; format: cell-based, human; details: Tavocept in combination with cisplatin vs cisplatin only controls
[4] = test system: patients with advanced non-small cell lung carcinoma (NSCLC), including the adenocarcinoma sub-type; assay: Japan Phase III Clinical Trial (paclitaxel + cisplatin with Tavocept or placebo); format: in vivo, human
Procedure: Patients admitted into the trial included those patients without previous treatment (excluding surgical treatment, administration of Picibanil into the serous membrane, irradiation of 30% or less hematopoietic bone, or oral chemotherapeutic agents within 3 months of entry in the trial).
The Japan Phase III Clinical Trial was conducted as a double-blind study because peripheral neuropathy is diagnosed based on subjective symptoms evaluated through clinical interviews, lab tests, and the like. Accordingly, evaluations by both physicians and patients are highly important. […] A placebo was used as control since there is no established therapy or drug for preventing peripheral neuropathy. Because the severity of peripheral neuropathy is evaluated based on patient's reports (i.e., subjective symptoms), the Peripheral Neuropathy Questionnaire (PNQ©) was used in primary evaluation. CIPN-20 and NCI-CTC were used in secondary evaluation. The incidence and severity of adverse reactions, time to their onset, etc. and the like, were compared between patients treated with Tavocept™ and those given a placebo using the aforementioned methods.

[5] = test system: patients with advanced stage (IIIB/IV) non-small cell lung carcinoma (NSCLC), including the adenocarcinoma sub-type; assay: U.S. Phase II NSCLC Clinical Trial (dose-dense docetaxel + cisplatin with or without Tavocept); format: in vivo, human
Procedure: Darbepoetin alfa (200 μg; subcutaneous administration) was administered on day one of the chemotherapy cycle and pegfilgrastim (6 mg subcutaneous administration) was administered on day two of the chemotherapy cycle if the patient's hemoglobin levels were ≦11 g/dL. The aforementioned chemotherapy cycle was repeated every two weeks, for up to a total of six cycles.

[6] = FIG. 7, Tavocept arm (5 in the placebo arm)
[7] = adenocarcinoma patients in the Tavocept arm
[8] = FIG. 13, Tavocept arm versus non-Tavocept arm
[9] = FIG. 14, adenocarcinoma patients, Tavocept vs non-Tavocept arm
[10] = FIG. 15, Tavocept arm versus non-Tavocept arm

## O=S(=O)([O-])CCSSCCS(=O)(=O)[O-].[Na+].[Na+] [Tavocept™, disodium 2,2′-dithio-bis-ethane sulfonate]
[1]; Disulfide 0.5 mM, minimum of triplicate assays
  NADPH Oxidation, Thioredoxin Reductase + Thioredoxin: 13.1 ± 0.2 nmol/min/mL
[1]; FIG. 17, increasing Tavocept concentration
  NADPH oxidation by TXR in the presence of TX: concentration-dependent increase
[1]; result in words
  oxidation of reduced thioredoxin to oxidized thioredoxin: drives the oxidation
[2]; Disulfide 0.5 mM, n = 6
  NADPH Oxidation, GR: 0.0 ± 0.01 nmol/min/mL
[2]; result in words
  substrate / alternative substrate inhibitor for glutathione reductase: not a substrate
[3]; Disulfide 0.5 mM, n = 6
  NADPH Oxidation, GR + GRX + GSH: 15.3 ± 1.0 nmol/min/mL
[3]; in the presence of reduced glutathione and glutathione reductase, result in words
  substrate-like activity with glutaredoxin / alternative substrate inhibitor for the coupled GRX/GSH/GR system: exhibits substrate-like activity
Whole cells
  whole cell mediated disulfide reduction: declined
Breast cancer cell lines
  cell death: increase in cell death
[4]; FIG. 5, paclitaxel/Tavocept/cisplatin regimen vs paclitaxel/saline placebo/cisplatin regimen, NSCLC patients
  reduction in severe (Grade D or E) peripheral neuropathy (PNQ, Primary Endpoint): ~50%
[4]; [6]
  patients with Grade 3 (severe) decrease in hematocrit levels: 1 patients
  patients with Grade 3 (severe) decrease in red blood cell levels: 1 patients
[4]; FIG. 7, Tavocept arm (8 in the placebo arm)
  patients with Grade 3 (severe) decrease in hemoglobin: 2 patients
[4]; FIG. 8, Tavocept arm (28.6% in the placebo arm)
  response rate as measured by the IRC: 33.3%
[4]; FIG. 8, Tavocept arm (33.0% in the placebo arm)
  Response Rate, as measured by physicians (Doctor): 41.9%
[4]; FIG. 9, NSCLC patients incl. adenocarcinoma, paclitaxel/Tavocept/cisplatin vs paclitaxel/saline placebo/cisplatin
  increase in median survival time: up to 40 days
[4]; FIG. 10, female NSCLC patients, paclitaxel/Tavocept/cisplatin vs paclitaxel/saline placebo/cisplatin
  survival period, female patient population: longer survival period
[4]; FIG. 11, adenocarcinoma sub-type, paclitaxel/Tavocept/cisplatin vs paclitaxel/saline placebo/cisplatin
  increase in median survival time, adenocarcinoma patients: up to 138 days
[4]; FIG. 11, adenocarcinoma sub-type, paclitaxel/Tavocept/cisplatin vs paclitaxel/saline placebo/cisplatin, listed as Tavocept
  increase in median survival time, adenocarcinoma patients: approximately 138 days
[4]; Tavocept and chemotherapy vs chemotherapy and placebo, result in words
  chemotherapy-induced vomiting/emesis and kidney damage: medically-important reductions
[4]; [7]
  increase in median survival time, adenocarcinoma patients: ~4.5 months
[5]; FIG. 12, NSCLC incl. adenocarcinoma, Tavocept arm (10.74 months non-Tavocept arm), 95% confidence limit
  median patient survival (time to death): 11.66 months
[5]; FIG. 12, NSCLC incl. adenocarcinoma, Tavocept vs non-Tavocept arm
  hazard ratio, survival: 0.750
[5]; FIG. 12, NSCLC, Tavocept arm versus non-Tavocept arm
  increase in patient survival: 0.92 month
[5]; FIG. 13, Tavocept arm (9.25% non-Tavocept arm), 95% confidence interval
  patient progression-free survival (PFS): 18.7%
[5]; FIG. 13, Tavocept arm (39.5% non-Tavocept arm), 95% confidence interval
  overall patient one-year survival (OS) rate: 50.7%
[5]; [8]
  increase in overall patient one-year survival (OS) rates: 11.2%
  increase in patient progression-free survival (PFS): 9.5%
[5]; FIG. 14, adenocarcinoma patients, Tavocept arm (9.10 months non-Tavocept arm), 95% confidence limit
  median patient survival (time to death), adenocarcinoma: 15.64 months
[5]; FIG. 14, adenocarcinoma patients, Tavocept arm versus non-Tavocept arm
  increase in patient survival, adenocarcinoma: 6.54 months
[5]; FIG. 14, adenocarcinoma patients, Tavocept arm versus non-Tavocept arm, listed as Tavocept
  increase in patient survival, adenocarcinoma: ~6.5 months
[5]; [9]
  hazard ratio, survival, adenocarcinoma: 0.601
  reduction in the patient mortality rate, adenocarcinoma: 40%
[5]; [10]
  reduction in dehydration (Grade 3 and Grade 4 treatment-related adverse events): 50%
  reduction in hypomagnesaemia (Grade 3 and Grade 4 treatment-related adverse events): 100%
  reduction in nausea (Grade 3 and Grade 4 treatment-related adverse events): 38.5%
  reduction in vomiting (Grade 3 and Grade 4 treatment-related adverse events): 71.5%
[5]; [7]
  increase in median survival time, adenocarcinoma patients: approximately 198 days
